Experimental data taken from patent US20160178584A1, “METHODS FOR DIAGNOSING AND ASSESSING KIDNEY DISEASE” (THE REGENTS OF THE UNIVERSITY OF CALIFORNIA, priority 2010, published 2016).

Experiments:
[1] = system: subjects with diabetic nephropathy; assay: Urine metabolomics in subjects treated with pirfenidone; format: in vivo, human; conditions: second cohort of patients enrolled in a separate trial
Text: Twenty-four hour urine was collected from both control and D-CKD subjects. A composite quantitative urine organic acid estimation was done using the Agilent 5973 […] and Mass spectrometry. Seventy-six different organic acids were looked at per sample and the results were standardized per mmol of creatinine.
Based on this study, the basis for why pirfenidone benefited some patients and not others was unclear. Despite available clinical data and protein biomarker studies there was little understanding on how to dose and prescribe this drug in a future study. Urine metabolomics was performed in subjects enrolled in this study at baseline and at 6 months after enrollment. A panel of metabolites based on a specific ratio added predictive value to the outcome on the drug. […] Similar approaches can be employed with other clinical trials to identify which patients will respond to drug, which patients will not, and identify potential new mechanisms. Additionally, metabolite profiles could predict adverse events in patients that are ongoing or will develop in the future.

[2] = system: subjects with diabetic nephropathy; assay: Pirfenidone trial: changes in plasma biomarkers of inflammation and fibrosis; format: in vivo, human; conditions: for Change in IFN gamma / Change in Plasma TGF Beta / Change in TNF α / Change in YKL40 / Change in BNP / Change in FGF23 / Change in IL1 / Change in S TNF R1: over 52 weeks; for Change in IFN gamma / Change in Plasma TGF Beta / Change in TNF α / Change in YKL40: mean ± SD; for Change in BNP / Change in FGF23 / Change in IL1 / Change in S TNF R1: median and IQR
Experimental: (§1) Biomarkers were analyzed in plasma and urine from samples collected at both baseline visits and both end-of-study visits, with the two results averaged. Plasma biomarkers were measured by MesoScale Discovery (MSD) platform at the UCSD Clinical Translational Research Institute (CTRI) facility. The MSD platform uses electrochemiluminescence tags on specific antibodies that emit light when electrochemically stimulated. The specific blood biomarkers measured were interferon-y (IFNy), interleukin 1 (IL-1), tumor necrosis factor (TNF), soluble TNF receptor 1 (S TNF R1), YKL40 (also called chitinase like protein or human cartilage glycoprotein-39), brain natriuretic peptide (BNP), and TGF-beta1. Fibroblast growth factor 23 (FGF23) was measured by a C-terminal ELISA assay (Immutopics, San Clemente, Calif.). Urine biomarkers included urine TGF-beta1 (measured by Quantikine, R&D Biosystems, as previously described 29). Urine albumin was measured by nephelometry and urine creatinine was measured by the Jaffe method.
In exploratory analysis, linear regression was performed to evaluate associations between baseline eGFR as the dependent variable and each biomarker at baseline as the independent variable. Skewed variables were natural log transformed, and each biomarker was evaluated as “per SD greater” to facilitate comparisons of strengths of association. Biomarker change scores were calculated as (end-of-study value—baseline level). Analysis of variance (ANOVA) was used to determine if the change in biomarker levels differed by randomized treatment assignment. It was also whether baseline biomarker levels were associated with eGFR change using multivariable linear regression. These models were adjusted for the other biomarkers and for clinical factors that are well established markers of progressive diabetic nephropathy, including age, sex, race, SBP, DBP, baseline ACR, and baseline eGFR.

[3] = system: subjects with diabetic nephropathy; assay: Pirfenidone trial: adverse events and study non-completion; format: in vivo, human; conditions: for non-completion: Aortic dilation / non-completion: Cancer / non-completion: Dialysis / non-completion: Fatigue / non-completion: Gastrointestinal symptoms / non-completion: Heart failure / non-completion: Rash / non-completion: Urinary tract infection: number of subjects (%)
Experimental: (§2) Eligible subjects were randomly assigned to receive pirfenidone 1200 mg daily, pirfenidone 2400 mg daily, or placebo for 54 weeks. Subjects received two 400 mg capsules of pirfenidone three times, one capsule of pirfenidone and one capsule of placebo three times daily), or two capsules of placebo three times daily. […] If symptoms persisted, the dose was kept at the lowest tolerable dose (but not less than 50% of original dose) if the subject desired to continue in the protocol.
An analysis based on logistic regression models was conducted to determine whether this violates the assumption of missing completely at random (MCAR) 40. This included using baseline characteristics to predict dropout and using eGFR values at a particular visit to predict dropout at the next visit. The latter part of the logistic regression was fitted using generalized estimating equations (GEE) 41. All data analyses were conducted using R and STATA version 11.0 (College Station, Tex.)

[4] = system: subjects with diabetic nephropathy; assay: Pirfenidone trial, secondary outcomes: urine albumin/creatinine ratio and urine TGF-beta; format: in vivo, human
Experimental: (§3) The primary endpoint was eGFR change from baseline to end of study. Baseline eGFR was determined from two serum creatinine measurements within 3 weeks prior to starting study drug. End of study eGFR was determined from two serum creatinine measurements at week 52 and week 54, prior to stopping study medication. Serum creatinine was measured by the Jaffe method separately at each clinic site laboratory. eGFR was determined by the 4-variable Modification of Diet in Renal Disease Study equation 37. Secondary endpoints included the change in urine ACR and the change in urine TGF-[…]/urine creatinine.
as §1
The pre-specified primary endpoint analysis was the eGFR change, compared between each pirfenidone treatment group with placebo group using the Student t-test. Secondary endpoints (ACR change and urine TGF-beta1 change[…]s were similarly evaluated. When one of the two visits was missing, a single observation was used. Due to missing data the assumption that the data points arose from an identical distribution (equal variance) was put in question. Therefore, in addition to the two-sample t-tests, we also performed permutation tests with 10,000 permutations of the treatment assignments, as well as an analysis of covariance (ANCOVA) 38 with iterated re-weighted least-squares (IWLS) 39 as confirmatory analyses. Data are presented as mean±SD for normally distributed variables, and medians and interquartile ranges for skewed variables.

[5] = system: subjects with diabetic nephropathy; assay: Randomized double-blind, placebo-controlled exploratory trial of pirfenidone: eGFR change (primary endpoint); format: in vivo, human; conditions: for eGFR Change, with imputation: 54 weeks, completers plus subjects who began dialysis, end-of-study eGFR imputed as 10 ml/min per 1.73 m2; for eGFR Change: over 54 weeks, 52 study completers, mean ± SD
Experimental: Pirfenidone is an orally-available anti-fibrotic agent that has shown efficacy in animal models of diabetic nephropathy and human focal segmental glomerulosclerosis. A randomized double-blind, placebo-controlled exploratory trial of pirfenidone was performed in subjects with diabetic nephropathy with elevated albuminura and reduced glomerular filtration rate (eGFR) (20-75 ml/min per 1.73 m^2). The pre-specified primary outcome was eGFR change after one year of therapy. 78 subjects were randomly allocated to placebo (n=27), pirfenidone 1200 mg/d (n=26), or pirfenidone 2400 mg/d (n=25). 52 subjects completed the study. During the course of the study, eGFR increased with pirfenidone 1200 mg/d [+3.3±8.5 ml/min per 1.73 m^2 (mean±SD)], whereas eGFR fell with placebo (−2.2±4.8 ml/min per 1.73 m^2, p<0.03 versus pirfenidone 1200 mg/d) and with pirfenidone 2400 mg/d (−1.9±6.7 ml/min per 1.73 m^2, P=0.25 versus placebo). Of the initial 77 subjects, 5 initiated hemodialysis during the study: 4 in the placebo group, 0 in the pirfenidone 1200 mg group and 1 in the pirfenidone 2400 mg group (P=0.25). Baseline serum albumin levels were statistically associated with eGFR improvement in the entire cohort (p=0.001) and in the pirfenidone 2400 group (+0.9 [95% CI 0.7 to 1.1], p=0.03).
The study protocol was approved by the institutional review boards of the participating centers and all patients provided written consent. Trial sites were Thomas Jefferson University, Philadelphia, Pa.; the Mayo Clinic, Rochester, Minn.; and the NIH Clinical Center, Bethesda, Md. At the pre-study evaluation, the potential study candidates provided a medical history and underwent a complete physical examination, including clinical laboratory determinations and the measurement of vital signs. Entry criteria included a history of type 1 or type 2 diabetes, eGFR 20-75 ml/min/1.73 m2, microalbuminuria or overt proteinuria, blood pressure <140/90 mm Hg on an a ACEi, ARB or the combination, if tolerated. Exclusion criteria included other causes of kidney disease, history of photosensitivity rash, and liver disease. A stratified block randomization scheme was used to maximize the balance of patients with type 1 and type 2 diabetes assigned to each treatment group, using randomization blocks of size 4.
as §2, §3
The pre-specified primary endpoint analysis was the eGFR change, compared between each pirfenidone treatment group with placebo group using the Student t-test. […]

[6] = system: patients with advanced and treatment-refractory focal segmental sclerosis; conditions: cited from earlier work
[7] = system: db/db mice; conditions: cited from earlier work

With Cc1ccc(=O)n(-c2ccccc2)c1 [pirfenidone] the “urine citrate with interventional treatment” value [1] was “showed an increase”, the “Change in IFN gamma” value ([2]; 1200, n = 14) was 0.1 ± 1.9 pg/mL and the “Change in Plasma TGF Beta” value ([2]; 1200, n = 14) was -2 ± 26 pg/mL. The “Change in TNF α” value ([2]; 1200, n = 14) was -0.8 ± 2.2 pg/mL, the “Change in YKL40” value ([2]; 1200, n = 14) was 6 ± 62 ng/mL and the “Change in BNP” value ([2]; 1200, n = 14) was −22 (−114, 24) pg/ml. The “Change in FGF23” value ([2]; 1200, n = 14) was −3 (−23, 33) RU/ml, the “Change in IL1” value ([2]; 1200, n = 14) was 0.0 (−0.3, 0.4) pg/ml and the “Change in S TNF R1” value ([2]; 1200, n = 14) was −140 (−497, 148) pg/ml. For the same molecule, the “Change in IFN gamma” value ([2]; 2400, n = 14) was 0.2 ± 2.5 pg/mL, the “Change in Plasma TGF Beta” value ([2]; 2400, n = 14) was 7 ± 17 pg/mL and the “Change in TNF α” value ([2]; 2400, n = 14) was -0.7 ± 2.1 pg/mL. The “Change in YKL40” value ([2]; 2400, n = 14) was 30 ± 43 ng/mL, the “Change in BNP” value ([2]; 2400, n = 14) was 45 (−67, 312) pg/ml and the “Change in FGF23” value ([2]; 2400, n = 14) was 13 (−6, 63) RU/ml. For the same molecule, the “Change in IL1” value ([2]; 2400, n = 14) was 0.0 (−0.2, 0.2) pg/ml, the “Change in S TNF R1” value ([2]; 2400, n = 14) was 197 (−113, 420) pg/ml and the “change of inflammatory plasma biomarkers with treatment” value ([2]; in vivo) was “none changed significantly”. For the same molecule, the “non-completion: Aortic dilation” value ([3]; 1200 mg (n = 26)) was 1 (4%), the “non-completion: Cancer” value ([3]; 1200 mg (n = 26)) was 0 (0%) and the “non-completion: Dialysis” value ([3]; 1200 mg (n = 26)) was 0 (0%). The “non-completion: Fatigue” value ([3]; 1200 mg (n = 26)) was 0 (0%), the “non-completion: Gastrointestinal symptoms” value ([3]; 1200 mg (n = 26)) was 3 (13%) and the “non-completion: Heart failure” value ([3]; 1200 mg (n = 26)) was 1 (4%). For the same molecule, the “non-completion: Rash” value ([3]; 1200 mg (n = 26)) was 1 (4%), the “non-completion: Urinary tract infection” value ([3]; 1200 mg (n = 26)) was 0 (0%) and the “non-completion: Aortic dilation” value ([3]; 2400 mg (n = 25)) was 0 (0%). For the same molecule, the “non-completion: Cancer” value ([3]; 2400 mg (n = 25)) was “One subject”, the “non-completion: Dialysis” value ([3]; 2400 mg (n = 25)) was 1 (4%) and the “non-completion: Fatigue” value ([3]; 2400 mg (n = 25)) was 3 (12%). The “non-completion: Gastrointestinal symptoms” value ([3]; 2400 mg (n = 25)) was 6 (25%), the “non-completion: Heart failure” value ([3]; 2400 mg (n = 25)) was 0 (0%) and the “non-completion: Rash” value ([3]; 2400 mg (n = 25)) was 1 (4%). For the same molecule, the “non-completion: Urinary tract infection” value ([3]; 2400 mg (n = 25)) was 1 (4%), the “non-completion: Cancer” value ([3]; 2400 mg (n = 25), listed as Prifenidone) was 1 (4%) and the “incidence of gastrointestinal side effects and fatigue” value ([3]; pirfenidone groups compared to placebo) was “appeared to be dose related”. For the same molecule, the “Non-Completers, n (%)” value ([3]; randomized to 1200) was 9 (35%), the “Non-Completers, n (%)” value ([3]; randomized to 2400) was 11 (44%) and the “change in urine albumin/creatinine ratio (ACR) from baseline to end of study” value ([4]; among study groups) was “no significant differences”. The albuminuria with treatment ([4]; in vivo) was “did not decrease”, the “urine TGF-beta levels, increase over 12 months” value ([4]; pirfenidone 1200 mg group) was 0.3 pg/mg and the “urine TGF-beta levels, decline over 12 months” value ([4]; pirfenidone 2400 mg group) was 0.1 pg/mg. For the same molecule, the “eGFR Change, with imputation” value ([5]; 1200 mg) was 3.3 ± 8.5 ml/min/1.73 m^2, the “eGFR Change” value ([5]; 1200 mg) was 3.3 ± 8.5 ml/min/1.73 m^2 and the “eGFR Change, with imputation” value ([5]; 2400 mg) was −2.1 ± 6.4 ml/min/1.73 m^2. For the same molecule, the “eGFR Change” value ([5]; 2400 mg) was −1.9 ± 6.7 ml/min/1.73 m^2, the “subjects who initiated hemodialysis during the study” value ([5]; pirfenidone 1200 mg group) was 0 and the “mean inter-group difference in eGFR change versus placebo” value ([5]; pirfenidone 1200 mg, baseline to end-of-study) was “+5.5 ml/min per 1.73 m^2”. The “difference in eGFR change versus placebo, baseline to month 6” value ([5]; pirfenidone 1200 mg, post-hoc two sample t-test) was 5.3 ml/min/1.73 m^2, the “eGFR change during the course of the study” value ([5]; pirfenidone 2400 mg/d, one year (54 weeks), mean±SD) was −1.9±6.7 ml/min per 1.73 m^2 and the “mean difference in eGFR change versus placebo” value ([5]; pirfenidone 2400 mg, baseline to end-of-study) was 0.3 ml/min per 1.73 m^2. For the same molecule, the “share of subjects who tolerated the dose” value ([6]; 2400 mg/d, FSGS open label study) was “⅔”, the “reduction in the rate of estimated glomerular filtration rate (eGFR) decline” value ([6]; compared to the rate of decline before pirfenidone) was 25% and the albuminuria ([7]; diabetic db/db mouse) was “without lowering albuminuria”. The glomerulosclerosis ([7]; oral, after the onset of established diabetic kidney disease) was “effective in reducing glomerulosclerosis”.
